Measurements taken from patent US20230391772A1, “METHODS AND COMPOSITIONS FOR TARGETED PROTEIN DEGRADATION” (Ranok Therapeutics (Hangzhou) Co. Ltd., priority 2020, published 2023).

How the values were obtained:
[1] = test system: NCI-H358 human non-small cell lung cancer; assay: NCI-H358 CCK-8 proliferation assay; format: cell-based; conditions: NCI-H358 cells, 72 hr
Method in brief: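 Compounds were tested as a 3-fold series from 20 μM down to 1.02 nM in CCK-8 absorbance assays. The lines used were NCI-H23 and NCI-H358, each with 1 KRAS(G12C) copy, and MIA PaCa-2 with 2 copies. Inhibition was derived relative to DMSO controls, with a no-cell blank subtracted.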

HSP90a protein = target: T1, HSP90a protein (Homo sapiens, UniProt P07900); assay: HSP90α-binding fluorescent polarization (FP) assay, BODIPY-labeled RNK04010 probe; conditions: FP competition with RNK04010 (BODIPY-labeled), 5 nM, 300 min at 25° C.
T1 construct: purchased BPS Bioscience 50298
Method in brief: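 Displacement of a 5 nM fluorescent HSP90 ligand from the N-terminal HSP90a domain by FP. Incubation ran at 25° C: 120 min for the FITC-geldanamycin tracer, 300 min for the BODIPY-conjugated triazolone RNK04010.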

[2] = test system: NCI-H23 human non-small cell lung cancer; assay: NCI-H23 CCK-8 proliferation assay; format: cell-based; conditions: NCI-H23 cells, 72 hr
Method: The following cancer cell lines were employed: BT-474 human breast carcinoma (ATCC, #HTB-20); MIA PaCa-2 human pancreatic carcinoma [2 copies KRAS(G12C)](ATCC, #CRL-1420); NCI-H23 human non-small cell lung cancer [1 copy KRAS(G12C)](ATCC, #CRL-5800); NCI-H358 human non-small cell lung cancer [1 copy KRAS(G12C)](ATCC, #CRL-5807); LU65A human lung carcinoma (Pharmaron, Beijing, China). Cell lines were cultured essentially according to ATCC and Pharmaron recommendations.
Cancer Cell Line Proliferation (CCK-8) Assays
3-fold serial dilutions of each test compound were prepared ranging from 20 μM to 1.02 nM.
% Inhibition=100−(D−B)/(S−B)*100%. • S: Absorbance of cells treated with DMSO • D: Absorbance of compound-treated cells • B: Absorbance of medium with DMSO without cells

Row | SMILES | EC50 [1] [nM] | IC50 (HSP90a protein) [nM] | EC50 [2] [nM]
1 | CC(=O)N1CCN(c2nc(NCCC(=O)N[C@H](C)c3ccc(CN4CCC(Cc5ccc(-n6c(O)nnc6-c6cc(C(C)C)c(O)cc6O)cc5)CC4)cc3)nc3c2CCN(c2cc(O)cc4ccccc24)C3)CC1 [Compound 60, (R)-3-((4-(4-acetylpiperazin-1-yl)-7-(3-hydroxynaphthalen-1-yl)-5,6,7,8-tetrahydropyrido[3,4-d]pyrimidin-2-yl)amino)-N-(1-(4-((4-(4-(3-(2,4-dihydroxy-5-isopropylphenyl)-5-hydroxy-4H-1,2,4-triazol-4-yl)benzyl)piperidin-1-yl)methyl)phenyl)ethyl)propanamide, trifluoroacetic acid] | 100 to 1000 | < 100 | > 1000
2 | C=CC(=O)N1CCN(c2nc(NCCC(=O)N3CCC(CN4CCN(Cc5ccc(-n6c(C(N)=O)nnc6-c6cc(CC)c(O)cc6O)cc5)CC4)CC3)nc3c2CCN(c2cccc4cccc(Cl)c24)C3)C[C@H]1CC#N [Compound 99, (R)-4-(4-((4-((1-(3-((4-(4-acryloyl-3-(cyanomethyl)piperazin-1-yl)-7-(8-chloronaphthalen-1-yl)-5,6,7,8-tetrahydropyrido[3,4-d]pyrimidin-2-yl)amino)propanoyl)piperidin-4-yl)methyl)piperazin-1-yl)methyl)phenyl)-5-(5-ethyl-2,4-dihydroxyphenyl)-4H-1,2,4-triazole-3-carboxamide, trifluoroacetic acid] | 100 to 1000 | 100 to 1000 | 100 to 1000
3 | C=CC(=O)N1CCN(c2nc(NCCC(=O)N3CCN(Cc4ccc(CN(C)Cc5ccc(-n6c(C(=O)NCC(F)(F)F)nnc6-c6cc(C(C)C)c(O)cc6O)cc5)cc4)CC3)nc3c2CCN(c2cccc4ccccc24)C3)C[C@H]1CC#N [Compound 109, (R)-4-(4-(((4-((4-(3-((4-(4-acryloyl-3-(cyanomethyl)piperazin-1-yl)-7-(naphthalen-1-yl)-5,6,7,8-tetrahydropyrido[3,4-d]pyrimidin-2-yl)amino)propanoyl)piperazin-1-yl)methyl)benzyl)(methyl)amino)methyl)phenyl)-5-(2,4-dihydroxy-5-isopropylphenyl)-N-(2,2,2-trifluoroethyl)-4H-1,2,4-triazole-3-carboxamide, trifluoroacetic acid] | 100 to 1000 | 100 to 1000 | 100 to 1000
4 | C=CC(=O)N1CCN(c2nc(NCCC(=O)N3CCC(Cc4ccc(-n5c(C(=O)NCC(F)(F)F)nnc5-c5cc(C(C)C)c(O)cc5O)cc4)CC3)nc3c2CCN(c2cc(O)cc4ccccc24)C3)CC1 [Compound 11, 4-(4-((1-(3-((4-(4-acryloylpiperazin-1-yl)-7-(3-hydroxynaphthalen-1-yl)-5,6,7,8-tetrahydropyrido[3,4-d]pyrimidin-2-yl)amino)propanoyl)piperidin-4-yl)methyl)phenyl)-5-(2,4-dihydroxy-5-isopropylphenyl)-N-(2,2,2-trifluoroethyl)-4H-1,2,4-triazole-3-carboxamide, trifluoroacetic acid] | 100 to 1000 | > 1000 | > 1000
5 | CC(=O)N1CCN(c2nc(NCCC(=O)N3CCN(Cc4ccc(CN(C)Cc5ccc(-n6c(C(=O)NCC(F)(F)F)nnc6-c6cc(C(C)C)c(O)cc6O)cc5)cc4)CC3)nc3c2CCN(c2cc(O)cc4ccccc24)C3)CC1 [Compound 115, 4-(4-(((4-((4-(3-((4-(4-acetylpiperazin-1-yl)-7-(3-hydroxynaphthalen-1-yl)-5,6,7,8-tetrahydropyrido[3,4-d]pyrimidin-2-yl)amino)propanoyl)piperazin-1-yl)methyl)benzyl)(methyl)amino)methyl)phenyl)-5-(2,4-dihydroxy-5-isopropylphenyl)-N-(2,2,2-trifluoroethyl)-4H-1,2,4-triazole-3-carboxamide, trifluoroacetic acid] | 100 to 1000 | 100 to 1000 | 100 to 1000
6 | C=CC(=O)N1CCN(c2nc(NCCC(=O)N3CCC(CN4CCN(Cc5ccc(-n6c(C(N)=O)nnc6-c6cc(CC)c(O)cc6O)cc5)CC4)CC3)nc3c2CCN(c2cc(O)cc4ccccc24)C3)CC1 [Compound 71, 4-(4-((4-((1-(3-((4-(4-acryloylpiperazin-1-yl)-7-(3-hydroxynaphthalen-1-yl)-5,6,7,8-tetrahydropyrido[3,4-d]pyrimidin-2-yl)amino)propanoyl)piperidin-4-yl)methyl)piperazin-1-yl)methyl)phenyl)-5-(5-ethyl-2,4-dihydroxyphenyl)-4H-1,2,4-triazole-3-carboxamide] | 100 to 1000 | < 100 | > 1000
7 | C=C(F)C(=O)N1CCN(c2nc(N3CCC(N4CCN(Cc5ccc(-n6c(O)nnc6-c6cc(C(C)C)c(O)cc6O)cc5)CC4)CC3)nc3c2CCN(c2cccc4cccc(Cl)c24)C3)C[C@@H]1CC#N [Compound 132, (S)-2-(4-(7-(8-chloronaphthalen-1-yl)-2-(4-(4-(4-(3-(2,4-dihydroxy-5-isopropylphenyl)-5-hydroxy-4H-1,2,4-triazol-4-yl)benzyl)piperazin-1-yl)piperidin-1-yl)-5,6,7,8-tetrahydropyrido[3,4-d]pyrimidin-4-yl)-1-(2-fluoroacryloyl)piperazin-2-yl)acetonitrile] | 100 to 1000 | 100 to 1000 | 100 to 1000
8 | CCc1cc(-c2nnc(C(N)=O)n2-c2ccc(CN3CCN(CC4CCN(C(=O)CCNc5nc6c(c(N7CCN(C(C)=O)CC7)n5)CCN(c5cc(O)cc7ccccc57)C6)CC4)CC3)cc2)c(O)cc1O [Compound 69, 4-(4-((4-((1-(3-((4-(4-acetylpiperazin-1-yl)-7-(3-hydroxynaphthalen-1-yl)-5,6,7,8-tetrahydropyrido[3,4-d]pyrimidin-2-yl)amino)propanoyl)piperidin-4-yl)methyl)piperazin-1-yl)methyl)phenyl)-5-(5-ethyl-2,4-dihydroxyphenyl)-4H-1,2,4-triazole-3-carboxamide, trifluoroacetic acid] | 100 to 1000 | < 100 | > 1000

The remaining lines, values ahead:

Row | EC50 [1] [nM] | IC50 (HSP90a protein) [nM] | EC50 [2] [nM] | SMILES
9 | 100 to 1000 | < 100 | > 1000 | CCC(=O)N1CCN(c2nc(NCCC(=O)N3CCC(CN4CCN(Cc5ccc(-n6c(C(N)=O)nnc6-c6cc(CC)c(O)cc6O)cc5)CC4)CC3)nc3c2CCN(c2cc(O)cc4ccccc24)C3)CC1 [Compound 75, 5-(5-ethyl-2,4-dihydroxyphenyl)-4-(4-((4-((1-(3-((7-(3-hydroxynaphthalen-1-yl)-4-(4-propionylpiperazin-1-yl)-5,6,7,8-tetrahydropyrido[3,4-d]pyrimidin-2-yl)amino)propanoyl)piperidin-4-yl)methyl)piperazin-1-yl)methyl)phenyl)-4H-1,2,4-triazole-3-carboxamide, trifluoroacetic acid]
10 | 100 to 1000 | < 100 | 100 to 1000 | C=CC(=O)N1CCN(c2nc(NCCC(=O)N3CCC(CN4CCN(Cc5ccc(-n6c(O)nnc6-c6cc(C(C)C)c(O)cc6O)cc5)CC4)CC3)nc3c2CCN(c2cccc4ccccc24)C3)C[C@H]1CC#N [Compound 78, (R)-2-(1-acryloyl-4-(2-((3-(4-((4-(4-(3-(2,4-dihydroxy-5-isopropylphenyl)-5-hydroxy-4H-1,2,4-triazol-4-yl)benzyl)piperazin-1-yl)methyl)piperidin-1-yl)-3-oxopropyl)amino)-7-(naphthalen-1-yl)-5,6,7,8-tetrahydropyrido[3,4-d]pyrimidin-4-yl)piperazin-2-yl)acetonitrile]
11 | 100 to 1000 | 100 to 1000 | 100 to 1000 | CCC(=O)N1CCN(c2nc(NCCC(=O)N3CCC(CN4CCN(Cc5ccc(-n6c(C(=O)NC(C)C(F)(F)F)nnc6-c6cc(CC)c(O)cc6O)cc5)CC4)CC3)nc3c2CCN(c2cc(O)cc4ccccc24)C3)CC1 (stereo not drawn) [Compound 119, 5-(5-ethyl-2,4-dihydroxyphenyl)-4-(4-((4-((1-(3-((7-(3-hydroxynaphthalen-1-yl)-4-(4-propionylpiperazin-1-yl)-5,6,7,8-tetrahydropyrido[3,4-d]pyrimidin-2-yl)amino)propanoyl)piperidin-4-yl)methyl)piperazin-1-yl)methyl)phenyl)-N-(1,1,1-trifluoropropan-2-yl)-4H-1,2,4-triazole-3-carboxamide, trifluoroacetic acid]
12 | 100 to 1000 | < 100 | 100 to 1000 | C=CC(=O)N1CCN(c2nc(NCCC(=O)N3CCC(CN4CCN(Cc5ccc(-n6c(C(N)=O)nnc6-c6cc(CC)c(O)cc6O)cc5)CC4)CC3)nc3c2CCN(c2cccc4ccccc24)C3)C[C@H]1CC#N [Compound 98, (R)-4-(4-((4-((1-(3-((4-(4-acryloyl-3-(cyanomethyl)piperazin-1-yl)-7-(naphthalen-1-yl)-5,6,7,8-tetrahydropyrido[3,4-d]pyrimidin-2-yl)amino)propanoyl)piperidin-4-yl)methyl)piperazin-1-yl)methyl)phenyl)-5-(5-ethyl-2,4-dihydroxyphenyl)-4H-1,2,4-triazole-3-carboxamide, trifluoroacetic acid]
